± gives the standard deviation of the averaged measurements.
System: HEK293 NF-kB-luciferase reporter cells
Assay: NF-kB luciferase reporter activity, robust Z-score vs plate median (robust Z-score (log luminescence)); higher = stronger NF-kB reporter activation
Conditions: TNF treatment time 8.5 h, transfection time 72 h
Method: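 Primary screen of an Ambion Pre-miR miRNA mimic library (miRBase v8.0, 1.6 pmol/well, 384-well, duplicate) reverse-transfected into HEK293 cells stably expressing a 5x NF-kB firefly luciferase reporter. After 72 h the cells were treated with vehicle or TNF (40 ng/mL) for 8.5 h and luminescence was read (BriteLite). Raw luminescence was log-transformed and converted to a robust Z-score per plate: (x - plate median)/plate MAD. Sequence given is the mature miRNA strand of the double-stranded mimic.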

Sequence	NF-kB luciferase reporter activity (TNF 0 ng/mL)	NF-kB luciferase reporter activity (TNF 40 ng/mL)
CAACGGAAUCCCAAAAGCAGCU	0.539 ± 0.19	1.2 ± 0.21
AUCAUGAUGGGCUCCUCGGUGU	-0.346 ± 1.1	-0.71 ± 0.099
UGGUUUACCGUCCCACAUACAU	-0.822 ± 0.38	0.367 ± 0.064
AAAGUGCUUCUCUUUGGUGGGUU	-1.14 ± 0.07	-0.144 ± 0.11
AAUCAUACAGGGACAUCCAGUU	-0.326 ± 0.46	0.117 ± 0.12
UGUCUUGCAGGCCGUCAUGCA	1.79 ± 0.31	-0.465 ± 0.12
AAAGUGCUUCCUUUUAGAGGGUU	-1.51 ± 0.46	-0.653 ± 0.033
UUCCCUUUGUCAUCCUUCGCCU	0.84 ± 0.23	0.327 ± 0.09
UCUCUGGAGGGAAGCACUUUCUG	-0.463 ± 0.65	-0.521 ± 0.11
GAAGUUGUUCGUGGUGGAUUCG	-0.0557 ± 0.33	-0.602 ± 0.087
UCGGGGAUCAUCAUGUCACGAG	1.13 ± 0.071	0.339 ± 0.01
AGUGACAUCACAUAUACGGCAGC	-1.06 ± 0.48	-2.733 ± 0.0029
AAAGUGCAUCUUUUUAGAGGAU	-0.977 ± 0.6	-0.416 ± 0.079
UCUCACACAGAAAUCGCACCCGUC	0.103 ± 1.2	0.598 ± 0.025
UCUACAAAGGGAAGCCCUUUCUG	-0.631 ± 0.31	0.879 ± 0.11
AAAGCGCUUCUCUUUAGAGGA	-0.221 ± 1.4	0.82217 ± 0.00059
GUGUGUGGAAAUGCUUCUGC	0.447 ± 0.27	-1.04 ± 0.03
UUCACAGUGGCUAAGUUCCGC	0.203 ± 0.55	0.955 ± 0.096
AGCUCGGUCUGAGGCCCCUCAG	1.38 ± 0.13	-1.1 ± 0.24
ACAAAGUGCUUCCCUUUAGAGU	-1.29 ± 0.15	-0.471 ± 0.097
CUCUAGAGGGAAGCGCUUUCUGUU	1.69 ± 0.18	0.579 ± 0.019
UUCAAGUAAUUCAGGAUAGGUU	0.218 ± 0.18	0.0275 ± 0.0019
UUCACAGGGAGGUGUCAUUUAU	0.436 ± 0.13	0.0761 ± 0.082
UUAAGACUUGCAGUGAUGUUUAA	-0.92 ± 0.38	0.155 ± 0.07
AUCGGGAAUGUCGUGUCCGCC	1.11 ± 0.67	0.676 ± 0.033
UGAAACAUACACGGGAAACCUCUU	0.49 ± 0.56	-0.403 ± 0.11
